According to PubChem BioAssay (NCI):
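Tested at 5 concentrations; 48 h exposure; 96-well plates; endpoints linearly interpolated, else capped at highest concentration. TGI denotes the concentration required for complete inhibition of growth.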

Tests used:
Test in all cases: NCI-60 cell line screen, 48 h
OVCAR-8 ovarian = tested on: OVCAR-8 ovarian
EKVX NSCLC = tested on: EKVX NSCLC
CAKI-1 renal = tested on: CAKI-1 renal
UO-31 renal = tested on: UO-31 renal
SNB-75 CNS = tested on: SNB-75 CNS
XF 498 CNS = tested on: XF 498 CNS
A498 renal = tested on: A498 renal
KM12 colon = tested on: KM12 colon
HOP-62 NSCLC = tested on: HOP-62 NSCLC
HCT-15 colon = tested on: HCT-15 colon
RPMI-8226 leukemia = tested on: RPMI-8226 leukemia
SW-620 colon = tested on: SW-620 colon
U251 CNS = tested on: U251 CNS
MALME-3M melanoma = tested on: MALME-3M melanoma
SNB-19 CNS = tested on: SNB-19 CNS
SK-OV-3 ovarian = tested on: SK-OV-3 ovarian
IGROV1 ovarian = tested on: IGROV1 ovarian
HT29 colon = tested on: HT29 colon
SK-MEL-28 melanoma = tested on: SK-MEL-28 melanoma
NCI-H522 lung = tested on: NCI-H522 lung
NCI-H23 lung = tested on: NCI-H23 lung
SR leukemia = tested on: SR leukemia
MOLT-4 leukemia = tested on: MOLT-4 leukemia
HCT-116 colon = tested on: HCT-116 colon
LOX IMVI melanoma = tested on: LOX IMVI melanoma
NCI-H226 lung = tested on: NCI-H226 lung
M19-MEL melanoma = tested on: M19-MEL melanoma
HL-60(TB) leukemia = tested on: HL-60(TB) leukemia
K-562 leukemia = tested on: K-562 leukemia
A549 NSCLC = tested on: A549 NSCLC
KM20L2 colon = tested on: KM20L2 colon
SN12C renal = tested on: SN12C renal
UACC-257 melanoma = tested on: UACC-257 melanoma
M14 melanoma = tested on: M14 melanoma
RXF 393 renal = tested on: RXF 393 renal
LXFL 529 NSCLC = tested on: LXFL 529 NSCLC
ACHN renal = tested on: ACHN renal
CCRF-CEM leukemia = tested on: CCRF-CEM leukemia
DMS 114 small cell lung = tested on: DMS 114 small cell lung
DLD-1 colon = tested on: DLD-1 colon
SF-295 CNS = tested on: SF-295 CNS
SK-MEL-5 melanoma = tested on: SK-MEL-5 melanoma
UACC-62 melanoma = tested on: UACC-62 melanoma
HOP-18 NSCLC = tested on: HOP-18 NSCLC
OVCAR-3 ovarian = tested on: OVCAR-3 ovarian
NCI-H460 lung = tested on: NCI-H460 lung
HCC-2998 colon = tested on: HCC-2998 colon
TK-10 renal = tested on: TK-10 renal
SF-268 CNS = tested on: SF-268 CNS
SF-539 CNS = tested on: SF-539 CNS
COLO 205 colon = tested on: COLO 205 colon
OVCAR-5 ovarian = tested on: OVCAR-5 ovarian
HOP-92 NSCLC = tested on: HOP-92 NSCLC
786-0 renal = tested on: 786-0 renal

Measured: TGI

O=C(CC1=Nc2nnc(CCCCCCCc3nnc4n3C(=O)C(CC(=O)c3ccccc3)=N4)n2C1=O)c1ccccc1
> 100 µM: all assays above
